Measured values reported in patent US20110212968A1, “PHENETHYLAMIDE DERIVATIVES AND THEIR HETEROCYCLIC ANALOGUES” (priority 2008, published 2011).

Key:
human orexin-2 receptor = molecular target: T1, human orexin-2 receptor (Homo sapiens, UniProt O43614); experiment: Intracellular calcium measurement (FLIPR Tetra), orexin receptor antagonistic activity, OX2; format: cell-based; conditions: CHO cells expressing human orexin-2 receptor, 3 nM orexin-A, conditions B
T1 construct: expressed in transfected cells; host or cells: CHO (Chinese hamster ovary) cells, kept under G418 selection
T1 sequence (O43614 1-444): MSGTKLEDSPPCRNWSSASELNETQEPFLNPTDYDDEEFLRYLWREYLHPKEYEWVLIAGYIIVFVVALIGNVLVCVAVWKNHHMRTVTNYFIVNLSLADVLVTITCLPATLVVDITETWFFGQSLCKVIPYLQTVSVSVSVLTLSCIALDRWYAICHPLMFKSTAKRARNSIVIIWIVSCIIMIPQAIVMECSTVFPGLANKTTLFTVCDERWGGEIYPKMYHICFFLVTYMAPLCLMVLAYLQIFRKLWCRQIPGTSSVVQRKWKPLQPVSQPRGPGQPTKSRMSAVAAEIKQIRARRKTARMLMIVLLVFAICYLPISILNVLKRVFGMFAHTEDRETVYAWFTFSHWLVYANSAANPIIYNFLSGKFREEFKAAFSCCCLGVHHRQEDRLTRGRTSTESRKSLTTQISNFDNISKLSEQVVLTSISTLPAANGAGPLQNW
Outline: (§1)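 Recombinant CHO cells expressing human OX1 or OX2, loaded with fluo-4 AM plus probenecid, were preincubated with antagonist 10 min, then stimulated with 3 nM human orexin-A. Peak fluorescence was compared with vehicle; IC50 derived, sometimes normalized to an on-plate reference compound; two pipetting/cell-splitting conditions were used.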

human orexin-1 receptor = molecular target: T2, human orexin-1 receptor (Homo sapiens, UniProt O43613); experiment: Intracellular calcium measurement (FLIPR Tetra), orexin receptor antagonistic activity, OX1; format: cell-based; conditions: CHO cells expressing human orexin-1 receptor, 3 nM orexin-A, conditions B
T2 construct: expressed in transfected cells; host or cells: CHO (Chinese hamster ovary) cells, kept under G418 selection
T2 sequence (O43613 1-425): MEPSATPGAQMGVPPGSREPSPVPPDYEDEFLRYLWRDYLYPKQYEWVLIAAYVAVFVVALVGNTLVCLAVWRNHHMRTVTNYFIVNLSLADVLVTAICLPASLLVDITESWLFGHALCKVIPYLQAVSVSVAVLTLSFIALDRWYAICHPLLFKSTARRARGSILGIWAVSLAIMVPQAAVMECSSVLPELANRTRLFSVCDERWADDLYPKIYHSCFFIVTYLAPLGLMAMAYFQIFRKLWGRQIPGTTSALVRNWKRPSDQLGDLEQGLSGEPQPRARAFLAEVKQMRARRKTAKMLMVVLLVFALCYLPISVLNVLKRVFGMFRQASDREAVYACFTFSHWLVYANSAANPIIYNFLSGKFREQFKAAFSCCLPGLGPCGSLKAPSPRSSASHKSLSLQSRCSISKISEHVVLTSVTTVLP
Outline: as §1

[1] = normalized (*) using IC50 of on-plate reference compound

Row | IC50 (human orexin-2 receptor) [nM] | IC50 (human orexin-1 receptor) [nM] | IC50 (human orexin-2 receptor; [1]) [nM] | IC50 (human orexin-1 receptor; [1]) [nM] | SMILES
1 | 16 | 7 |  |  | Cc1cccc(-c2sc(N)nc2C(=O)N(CCc2c[nH]c3ccc(F)cc23)CC2CC2)c1 [Example 232, 2-Amino-5-m-tolyl-thiazole-4-carboxylic acid cyclopropylmethyl-[2-(5-fluoro-1H-indol-3-yl)-ethyl]-amide]
2 |  |  | 22 | 37 | Cc1cccc(-c2sc(N)nc2C(=O)N(CCc2c[nH]c3cc(F)ccc23)CC2CC2)c1 [Example 233, 2-Amino-5-m-tolyl-thiazole-4-carboxylic acid cyclopropylmethyl-[2-(6-fluoro-1H-indol-3-yl)-ethyl]-amide]
3 | 16 | 5 |  |  | Cc1cccc(-c2sc(N)nc2C(=O)N(CCc2c[nH]c3c(F)cccc23)CC2CC2)c1 [Example 234, 2-Amino-5-m-tolyl-thiazole-4-carboxylic acid cyclopropylmethyl-[2-(7-fluoro-1H-indol-3-yl)-ethyl]-amide]
4 | 232 | 1770 |  |  | COc1ccc(CCN(CC2CC2)C(=O)c2nc(C)sc2-c2ccc(C)c(C)c2)cn1 [Example 254, 5-(3,4-Dimethyl-phenyl)-2-methyl-thiazole-4-carboxylic acid cyclopropylmethyl-[2-(6-methoxy-pyridin-3-yl)-ethyl]-amide]
5 |  |  | 185 | 576 | CN(C)c1cccc(-c2ocnc2C(=O)N(CCc2c[nH]c3ccc(F)cc23)CC2CC2)c1 [Example 261, 5-(3-Dimethylamino-phenyl)-oxazole-4-carboxylic acid cyclopropylmethyl-[2-(5-fluoro-1H-indol-3-yl)-ethyl]-amide]
6 |  |  | 470 | 9210 | Cc1nc(-c2ccc(Cl)cc2)c(C(=O)N(CCc2c[nH]c3ccc(F)cc23)CC2CC2)s1 [Example 262, 4-(4-Chloro-phenyl)-2-methyl-thiazole-5-carboxylic acid cyclopropylmethyl-[2-(5-fluoro-1H-indol-3-yl)-ethyl]-amide]
7 |  |  | 64 | 407 | Cc1nc(C(=O)N(CCc2c[nH]c3ccc(F)cc23)CC2CC2)c(-c2ccc(C)c(F)c2F)s1 [Example 273, 5-(2,3-Difluoro-4-methyl-phenyl)-2-methyl-thiazole-4-carboxylic acid cyclopropylmethyl-[2-(5-fluoro-1H-indol-3-yl)-ethyl]-amide]
8 |  |  | 66 | 155 | Cc1ccc(-c2scnc2C(=O)N(CCc2c[nH]c3ccc(F)cc23)CC2CC2)cc1C [Example 274, 5-(3,4-Dimethyl-phenyl)-thiazole-4-carboxylic acid cyclopropylmethyl-[2-(5-fluoro-1H-indol-3-yl)-ethyl]-amide]
9 |  |  | 70 | 201 | COc1nc(C(=O)N(CCc2c[nH]c3ccc(F)cc23)CC2CC2)c(-c2cccc(C)c2)s1 [Example 275, 2-Methoxy-5-m-tolyl-thiazole-4-carboxylic acid cyclopropylmethyl-[2-(5-fluoro-1H-indol-3-yl)-ethyl]-amide]
10 |  |  | 601 | 2260 | Cc1ccc(-c2sc(C3CC3)nc2C(=O)N(CCc2c[nH]c3ccc(F)cc23)CC2CC2)cc1F [Example 276, 2-Cyclopropyl-5-(3-fluoro-4-methyl-phenyl)-thiazole-4-carboxylic acid cyclopropylmethyl-[2-(5-fluoro-1H-indol-3-yl)-ethyl]-amide]
11 |  |  | 283 | 5620 | Cc1cccc(-c2sc(CN(C)C)nc2C(=O)N(CCc2c[nH]c3ccc(F)cc23)CC2CC2)c1 [Example 279, 2-Dimethylaminomethyl-5-m-tolyl-thiazole-4-carboxylic acid cyclopropylmethyl-[2-(5-fluoro-1H-indol-3-yl)-ethyl]-amide]
12 |  |  | 16 | 192 | CCCN(CCc1c[nH]c2ccc(F)cc12)C(=O)c1nccnc1-c1ccccc1 [Example 283, 3-Phenyl-pyrazine-2-carboxylic acid [2-(5-fluoro-1H-indol-3-yl)-ethyl]-propyl-amide]
13 |  |  | 322 | 2730 | COC(=O)CN(CCc1c[nH]c2ccc(F)cc12)C(=O)c1nccnc1-c1ccccc1 [Example 286, [[2-(5-Fluoro-1H-indol-3-yl)-ethyl]-(3-phenyl-pyrazine-2-carbonyl)-amino]-acetic acid methyl ester]
14 |  |  | 585 | 2440 | CC(C)N(CCc1c[nH]c2ccc(F)cc12)C(=O)c1nccnc1-c1ccccc1 [Example 287, 3-Phenyl-pyrazine-2-carboxylic acid [2-(5-fluoro-1H-indol-3-yl)-ethyl]-isopropyl-amide]
15 |  |  | 627 | > 4270 | O=C(c1nccnc1-c1ccccc1)N(CCO)CCc1c[nH]c2ccc(F)cc12 [Example 289, 3-Phenyl-pyrazine-2-carboxylic acid [2-(5-fluoro-1H-indol-3-yl)-ethyl]-(2-hydroxy-ethyl)-amide]
16 |  |  | 10 | 163 | CCCN(CCc1c[nH]c2ccc(F)cc12)C(=O)c1nccnc1-c1ccc(C)c(C)c1 [Example 292, 3-(3,4-Dimethyl-phenyl)-pyrazine-2-carboxylic acid [2-(5-fluoro-1H-indol-3-yl)-ethyl]-propyl-amide]
17 |  |  | 706 | 3820 | Cc1ccc(-c2nccnc2C(=O)N(CCc2c[nH]c3ccc(F)cc23)CC(N)=O)cc1C [Example 294, 3-(3,4-Dimethyl-phenyl)-pyrazine-2-carboxylic acid carbamoylmethyl-[2-(5-fluoro-1H-indol-3-yl)-ethyl]-amide]
18 |  |  | 136 | 702 | Cc1ccc(-c2nccnc2C(=O)N(CCc2c[nH]c3ccc(F)cc23)CC(F)F)cc1C [Example 297, 3-(3,4-Dimethyl-phenyl)-pyrazine-2-carboxylic acid (2,2-difluoro-ethyl)-[2-(5-fluoro-1H-indol-3-yl)-ethyl]-amide]
19 |  |  | 551 | 2350 | COc1ccc(-c2sc(C)nc2C(=O)N(CCc2c[nH]c3ccc(F)cc23)CC(=O)N(C)C)cn1 [Example 303, 5-(6-Methoxy-pyridin-3-yl)-2-methyl-thiazole-4-carboxylic acid dimethylcarbamoylmethyl-[2-(5-fluoro-1H-indol-3-yl)-ethyl]-amide]
20 |  |  | 20 | 345 | COc1ccc(-c2sc(C)nc2C(=O)N(CCc2c[nH]c3ccc(F)cc23)CC(F)F)cn1 [Example 307, 5-(6-Methoxy-pyridin-3-yl)-2-methyl-thiazole-4-carboxylic acid (2,2-difluoro-ethyl)-[2-(5-fluoro-1H-indol-3-yl)-ethyl]-amide]
21 |  |  | 25 | 357 | COc1ccc(-c2sc(C)nc2C(=O)N(CCO)CCc2c[nH]c3ccc(F)cc23)cn1 [Example 308, 5-(6-Methoxy-pyridin-3-yl)-2-methyl-thiazole-4-carboxylic acid [2-(5-fluoro-1H-indol-3-yl)-ethyl]-(2-hydroxy-ethyl)-amide]
22 |  |  | 16 | 147 | CCCN(CCc1c[nH]c2ccc(F)cc12)C(=O)c1ncccc1-c1ccc(OC)nc1 [Example 311]
23 |  |  | 76 | 346 | COc1ccc(-c2cccnc2C(=O)N(CCc2c[nH]c3ccc(F)cc23)CC(F)(F)F)cn1 [Example 312]
24 |  |  | 526 | 5260 | COc1ccc(-c2cccnc2C(=O)N(CCc2c[nH]c3ccc(F)cc23)CC(N)=O)cn1 [Example 313, 6′-Methoxy-[3,3′]bipyridinyl-2-carboxylic acid carbamoylmethyl-[2-(5-fluoro-1H-indol-3-yl)-ethyl]-amide]
25 |  |  | 116 | 847 | COC(=O)CN(CCc1c[nH]c2ccc(F)cc12)C(=O)c1ncccc1-c1ccc(OC)nc1 [Example 315]
26 |  |  | 162 | 760 | COc1ccc(-c2cccnc2C(=O)N(CCc2c[nH]c3ccc(F)cc23)CC(F)F)cn1 [Example 317, 6′-Methoxy-[3,3′]bipyridinyl-2-carboxylic acid (2,2-difluoro-ethyl)-[2-(5-fluoro-1H-indol-3-yl)-ethyl]-amide]
27 |  |  | 848 | > 5420 | COc1ccc(-c2cccnc2C(=O)N(CCO)CCc2c[nH]c3ccc(F)cc23)cn1 [Example 318, 6′-Methoxy-[3,3′]bipyridinyl-2-carboxylic acid [2-(5-fluoro-1H-indol-3-yl)-ethyl]-(2-hydroxy-ethyl)-amide]
